Assay results: patent US20240408215A1, “USE OF DIAZIRINE LINKER FOR DRUG CONJUGATES” (HELMHOLTZ ZENTRUM MUNCHEN - DEUTSCHES FORSCHUNGSZENTRUM FUR …, priority 2021, published 2024)

Assay: Pulsed UV light release of 7-hydroxycoumarin in homogenous media, with dark intervals
Format: physicochemical
Conditions: FIG. 7

- release of 7-hydroxycoumarin upon UV light irradiation (water/EtOH/DMSO (1.0:1.0:0.1), UV light pulses, not attached to agarose): efficient release
SMILES: [N-]=[N+]=NCCCCCC(=O)OCC1(COc2ccc3ccc(=O)oc3c2)N=N1 [(3-(((2-oxo-2H-chromen-7-yl)oxy)methyl)-3H-diazirin-3-yl)methyl-6-azidohexanoate]
- release of 7-hydroxycoumarin in the dark after the light pulse (1-2 minutes in the dark after each pulse): no additional leaking of payload occurs after ending the pulse
